According to US9284303B2, “Benzimidazole cannabinoid agonists bearing a substituted heterocyclic group” (priority 2006, dated 2016):
Where two headings read alike, the source gives them in different places.

How the values were obtained:
[1] = target: T1, human CB1 (hCB1) receptor (Homo sapiens, UniProt P21554); assay: Inhibition of forskolin-activated cAMP production upon activation of hCB1 (HTRF), CHO-K1 cells; format: cell-based; details: CB1 pEC50, hCB1-CHO-K1 cells, forskolin-activated cAMP, pEC50=-log(EC50)
T1 construct: expressed in transfected cells; host or cells: CHO-K1
Method: (§1) Functional activity of the test compounds was assessed by measuring their potency to inhibit forskolin-activated cAMP production upon activation of the human CB1 (hCB1) or human CB2 (hCB2) receptor through homogenous time resolved fluorescence (HTRF) assays.
CHO-K1 cells stably transfected with either hCB1 or hCB2 were grown up to 80-90% confluence in T175 Falcon flasks in DMEM/NUT MIX F-12 culture medium complemented with 2% Solution A (5.10^6 IU/l penicillin G, 5 g/l streptomycin sulphate, 5.5 g/l pyruvate, 14.6 g/l L-glutamine, 1M NaOH) and 10% foetal calf serum. Before the experiments, medium was removed, cells were washed with PBS/EDTA (140 mM NaCl, 1 mM Naz-EDTA, 8 mM Na2HPO4.2H2O, 8.5 mM KH2PO4, 2.7 mM KCl, 21 mM glucose), resuspended in stimulation buffer (HBSS 1x, IBMX 1 mM, Hepes 5 mM, MgCl2 10 mM, BSA 0.1%, pH 7.4). Cells were diluted to a concentration of 8.10^5 cell/ml for hCB1 experiments and 10^6 cells/ml for hCB2 experiments. Assays were performed using the cAMP Dynamic HTRF kit (CIS bio international, France) according to the recommendations of the manufacturer.
For CB1, each well of a 96 flat bottom black polystyrene assay plate (Costar) was filled with 25 μl stimulation buffer containing 6 μM forskolin and either test compound (in 2% DMSO), 2% DMSO or 2 μM CP55490 (in 2% DMSO). Then, 25 μl of the diluted cells was added (20,000 cells/well). After 30 minutes incubation in dark at room temperature, 25 μl cAMP-XL665 and 25 μl anti-cAMP cryptate (both at a final dilution of 1/80) was added to the cells.
After equilibration of the reaction mixtures for 1 to 24 hours in dark at room temperature, fluorescence was measured at 665 nm and 620 nm using a Discovery microplate fluorescence counter (Perkin Elmer), and the signal ratio of 665 nm/620 nm was calculated. The signal ratios of the test compounds were expressed relative to the signal ratios of the DMSO control (maximal signal ratio, no inhibition of cAMP) and CP55490 or WIN55212-2 for hCB1 and hCB2, respectively (minimal signal ratio, maximal inhibition of cAMP). From the dose response curves generated for each test compound, the dose at which 50% of the maximal inhibition of cAMP level is observed (EC50, expressed in the Tables as pEC50=−log(EC50) values) and the level of inhibition reached with 10 μM of the test compound compared to CP55490 (for hCB1) or WIN55212-2 (for hCB2) was calculated.

[2] = target: T2, human CB2 (hCB2) receptor (Homo sapiens, UniProt P34972); assay: Inhibition of forskolin-activated cAMP production upon activation of hCB2 (HTRF), CHO-K1 cells; format: cell-based; details: for ratio CB2 agonism over CB1 agonism: Table C-1, selectivity hCB2 over hCB1; for EC50: forskolin-activated cAMP, pEC50=-log(EC50)
T2 construct: expressed in transfected cells; host or cells: CHO-K1
Method: as §1
Before the experiments, medium was removed, cells were washed with PBS/EDTA (140 mM NaCl, 1 mM Naz-EDTA, 8 mM Na2HPO4.2H2O, 8.5 mM KH2PO4, 2.7 mM KCl, 21 mM glucose), resuspended in stimulation buffer (HBSS 1x, IBMX 1 mM, Hepes 5 mM, MgCl2 10 mM, BSA 0.1%, pH 7.4). Cells were diluted to a concentration of 8.10^5 cell/ml for hCB1 experiments and 10^6 cells/ml for hCB2 experiments. Assays were performed using the cAMP Dynamic HTRF kit (CIS bio international, France) according to the recommendations of the manufacturer.
Then, 20 μl of the diluted hCB2-CHO-K1 cells was added (20,000 cells/well). After 30 minutes incubation in dark at room temperature, 10 μl cAMP-XL665 and 10 μl anti-cAMP cryptate (both at a final dilution of 1/100) was added to the cells.

[3] = hCB2-CHO-K1 cells, read-out: CB2 pEC50 (converted)

T1 sequence (P21554 whole entry): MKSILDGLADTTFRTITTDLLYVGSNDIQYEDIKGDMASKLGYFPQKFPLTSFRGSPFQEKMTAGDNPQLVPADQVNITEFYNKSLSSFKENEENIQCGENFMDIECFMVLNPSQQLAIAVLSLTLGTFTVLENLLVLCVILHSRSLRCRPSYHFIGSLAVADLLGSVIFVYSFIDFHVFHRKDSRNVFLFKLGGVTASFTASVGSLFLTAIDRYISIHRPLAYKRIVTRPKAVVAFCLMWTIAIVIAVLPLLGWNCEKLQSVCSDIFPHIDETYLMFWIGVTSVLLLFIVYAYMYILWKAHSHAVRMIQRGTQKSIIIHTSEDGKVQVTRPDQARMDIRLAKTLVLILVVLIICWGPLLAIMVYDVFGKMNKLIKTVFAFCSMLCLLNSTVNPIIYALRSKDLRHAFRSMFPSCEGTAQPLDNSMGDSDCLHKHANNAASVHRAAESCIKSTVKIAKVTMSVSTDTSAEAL
T2 sequence (P34972 whole entry): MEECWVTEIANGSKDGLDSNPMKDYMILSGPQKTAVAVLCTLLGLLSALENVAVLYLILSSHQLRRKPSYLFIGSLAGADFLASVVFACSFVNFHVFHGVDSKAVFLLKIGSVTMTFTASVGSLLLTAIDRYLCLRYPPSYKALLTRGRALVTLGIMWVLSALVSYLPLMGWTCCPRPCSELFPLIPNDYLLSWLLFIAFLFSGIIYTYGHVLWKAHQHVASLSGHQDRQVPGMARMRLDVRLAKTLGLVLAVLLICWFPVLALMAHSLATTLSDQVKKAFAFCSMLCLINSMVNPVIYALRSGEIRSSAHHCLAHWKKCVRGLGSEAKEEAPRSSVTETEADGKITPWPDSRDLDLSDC

Row | SMILES | EC50 [1] [nM] | ratio CB2 agonism over CB1 agonism [2] | EC50 [2, 3] [nM] | ratio CB2 agonism over CB1 agonism ([2]; listed as 58) | EC50 ([2]; CB2 pEC50, hCB2-CHO-K1 cells) [nM] | ratio CB2 agonism over CB1 agonism ([2]; listed as 64) | ratio CB2 agonism over CB1 agonism ([2]; listed as 93)
1 | CC(C)(C)c1nc2cc(S(=O)(=O)c3ccnc(F)c3)ccc2n1CCC1OCCO1 [Co. No. 165] | > 10000 | >923 | 10.7 | – | – | – | –
2 | CC(C)(C)c1nc2cc(S(=O)(=O)c3ccnc(F)c3)ccc2n1CC1CCCCO1 (centres unmarked) [Co. No. 113] | 794 | 302 | 2.63 | – | – | – | –
3 | Cc1cccc(S(=O)(=O)c2ccc3c(c2)nc(C(C)(C)C)n3CC2CCOCC2)n1 [Co. No. 109] | 263 | 324 | 0.813 | – | – | – | –
4 | Cc1noc(C)c1S(=O)(=O)c1ccc2c(c1)nc(C(C)(C)C)n2CC1CCOCC1 [Co. No. 15] | 575 | 556 | 1.05 | – | – | – | –
5 | CC(C)(C)c1nc2cc(S(=O)(=O)c3ccnc(/C=C/Cl)c3)ccc2n1CC1CCOCC1 [Co. No. 125] | > 10000 | >3981 | 2.51 | – | – | – | –
6 | CC(C)(C)c1nc2cc([S+]([O-])c3ccc(Cl)nn3)ccc2n1CC1CCOCC1 (centres unmarked) [Co. No. 31] | 427 | 353 | 1.2 | – | – | – | –
7 | CCCC(C)Cn1c(C(C)(C)C)nc2cc(S(=O)(=O)c3ccnc(F)c3)ccc21 (centres unmarked) [Co. No. 148] | > 10000 | >38905 | 0.257 | – | – | – | –
8 | COc1cc(S(=O)(=O)c2ccc3c(c2)nc(C(C)(C)C)n3CC2CCOCC2)ccn1 [Co. No. 70] | 1410 | 2570 | 0.55 | – | – | – | –
9 | CC(C)(C)c1nc2cc(S(=O)(=O)c3ccc(S(C)(=O)=O)s3)ccc2n1CC1CCOCC1 [Co. No. 58] | 1820 | – | 0.832 | 2188 | – | – | –
10 | CC(C)(C)c1nc2cc(S(=O)(=O)c3ncc(C(F)(F)F)cc3Cl)ccc2n1CC1CCOCC1 [Co. No. 61] | 151 | 135 | 1.12 | – | – | – | –
11 | COc1ncc(S(C)(=O)=O)cc1S(=O)(=O)c1ccc2c(c1)nc(C(C)(C)C)n2CC1CCOCC1 [Co. No. 78] | > 10000 | >1380 | 7.24 | – | – | – | –
12 | COc1ncc(S(=O)(=O)c2ccc3c(c2)nc(C(C)(C)C)n3CC2CCOCC2)cn1 [Co. No. 111] | 427 | 372 | 1.15 | – | – | – | –
13 | CC(C)(C)c1nc2cc(S(=O)(=O)c3ccnc(C(F)(F)F)c3)ccc2n1CC1CCOCC1 [Co. No. 119] | > 10000 | >1413 | 7.08 | – | – | – | –
14 | CC(C)(C)c1nc2cc(S(=O)(=O)c3ccc[n+]([O-])c3)ccc2n1CC1CCOCC1 [Co. No. 34] | 7410 | 4732 | – | – | 1.58 | – | –
15 | CC(C)(C)c1nc2cc(S(=O)(=O)c3sc(S(C)(=O)=O)cc3Br)ccc2n1CC1CCOCC1 [Co. No. 64] | 1860 | – | – | – | 0.479 | 3920 | –
16 | CC(C)(C)c1nc2cc(S(=O)(=O)c3ccc(CN)nc3)ccc2n1CC1CCOCC1 [Co. No. 116] | 5750 | 966 | 5.89 | – | – | – | –
17 | CC(C)(C)c1nc2cc(S(=O)(=O)c3ccc(S(N)(=O)=O)s3)ccc2n1CC1CCOCC1 [Co. No. 47] | 1480 | 871 | 1.7 | – | – | – | –
18 | CC(C)(C)c1nc2cc(S(=O)(=O)c3ccc(C(=O)N4CCCC4)o3)ccc2n1CC1CCOCC1 [Co. No. 74] | 2090 | 668 | 3.16 | – | – | – | –
19 | CC(C)(C)c1nc2cc(S(=O)(=O)c3ccnc(OCCCN)c3)ccc2n1CC1CCOCC1 [Co. No. 131] | > 10000 | >631 | 15.8 | – | – | – | –
20 | CC(C)(C)c1nc2cc([S+]([O-])c3cc[n+]([O-])cc3C(F)(F)F)ccc2n1CC1CCOCC1 (centres unmarked) [Co. No. 95] | > 10000 | – | 5.75 | – | – | – | –
21 | CC(C)(C)c1nc2cc(S(=O)(=O)c3ccc(C(=O)O)cn3)ccc2n1CC1CCCCC1 [Co. No. 46] | 3890 | 3758 | 1.05 | – | – | – | –
22 | CC(=O)c1ccc([S+]([O-])c2ccc3c(c2)nc(C(C)(C)C)n3CC2CCOCC2)nc1 (centres unmarked) [Co. No. 32] | 7590 | 2951 | 2.57 | – | – | – | –
23 | CC(C)(C)c1nc2cc(S(=O)(=O)c3ccn(C(F)F)c(=O)c3)ccc2n1CC1CCOCC1 [Co. No. 83] | 407 | 209 | 2 | – | – | – | –
24 | CC(C)(C)c1nc2cc(S(=O)(=O)c3ccnc(C#N)c3)ccc2n1CC1CCOCC1 [Co. No. 93] | > 10000 | – | – | – | 1.48 | – | >6761
25 | CC(C)(C)c1nc2cc(S(=O)(=O)c3ccnc(OCCCN4CCOCC4)c3)ccc2n1CC1CCOCC1 [Co. No. 135] | > 10000 | >4571 | 2.19 | – | – | – | –
26 | COC(=O)c1ccc(S(=O)(=O)c2ccc3c(c2)nc(C(C)(C)C)n3CC2CCCCC2)nc1 [Co. No. 35] | 32.4 | 79 | 0.407 | – | – | – | –
27 | CC(=O)NCCCOc1cc(S(=O)(=O)c2ccc3c(c2)nc(C(C)(C)C)n3CC2CCOCC2)ccn1 [Co. No. 132] | > 10000 | >7079 | 1.41 | – | – | – | –
28 | Cc1cc(S(=O)(=O)c2ccc3c(c2)nc(C(C)(C)C)n3CC2CCOCC2)ccn1 [Co. No. 13] | 2040 | 1622 | 1.26 | – | – | – | –
29 | COc1cc(S(=O)(=O)c2ccc3c(c2)nc(C(C)(C)C)n3CC2CCC(F)(F)CC2)ccn1 [Co. No. 122] | 100 | 102 | 0.977 | – | – | – | –
30 | CC(C)(C)c1nc2cc(S(=O)(=O)c3ccc(C(N)=O)cn3)ccc2n1CC1CCOCC1 [Co. No. 33] | 5750 | 1884 | 3.09 | – | – | – | –
